Data taken from patent US9789096B2, “Methods and compositions for selective and targeted cancer therapy” (Board of Regents of the University of Texas System, priority 2013, dated 2017).
Where two headings read alike, the source gives them in different places.

How the values were obtained:
Assay type in all cases: cell-based, human
H2009 = experiment: Cell viability dose-response, H2009; conditions: Homo sapiens; for AC50: NCI-H2009, Table 8; for IC50: NCI-H2009
Method: (§1) FIG. 6A. […] Cell viability is plotted vs. compound concentration. Compound was added to cells plated at 15% confluence in 96-well plates in RPMI-1640 media supplemented with 5% Fetal Bovine Serum and 2 mM L-Glutamine. After 4 days of incubation, ATP levels were measured using Cell Titer Glo (Promega). Data are presented as the average of 2 replicates ±SEM.
(§2) Selectivity may be measured by the half maximal inhibitory concentration (IC50), which, as used herein, is a measure of the effectiveness of a compound in killing cells. This quantitative measure indicates how much of a particular compound is needed to kill a particular cell population by half (e.g., as indicated by the amount of ATP). […] The IC50 can be determined by constructing a dose-response curve. The lower the IC50, the higher the potency, and the greater the difference between IC50 values for different cell lines (e.g., sensitive lines vs. insensitive lines, and sensitive lines vs. normal lines) the greater the selectivity. […]
(§3) With this information, we synthesized and tested a series of small molecules derived in conception from the oxalamide and chromone scaffold including N-acyl ureas, as shown in Tables 6-8. Each compound was tested in a 12-point dose-response study starting at 50 micromolar and decreasing in 3-fold increments to sub-nanomolar concentrations, in duplicate. Additionally, one or more additional cell line was tested in the same way.

H2122 = experiment: Cell viability dose-response, H2122; conditions: Homo sapiens; for AC50: NCI-H2122, Table 8, 12-point dose-response starting at 50 micromolar
Method: as §1, §2, §3

HCC44 = experiment: Cell viability dose-response, HCC44; conditions: Homo sapiens; for AC50: HCC44, Table 8, 12-point dose-response starting at 50 micromolar
Method: as §1, §2, §3

H1819 = experiment: Cell viability dose-response, H1819; conditions: Homo sapiens, NCI-H1819, Tables 3 and 4; read-out: IC50 (uM) vs indicated non-small cell lung cancer cell line H1819
Method: as §1, §2, §3

[1] = 12-point dose-response starting at 50 micromolar
[2] = 12-point dose-response starting at 50 micromolar, 3-fold increments, in duplicate, read-out: toxicity data, H2009
[3] = NCI-H2122, 12-point dose-response starting at 50 micromolar, 3-fold increments, in duplicate, read-out: toxicity data, H2122
[4] = HCC44, 12-point dose-response starting at 50 micromolar, 3-fold increments, in duplicate, read-out: toxicity data, HCC44
[5] = NCI-H2122, Tables 3 and 4, read-out: IC50 (uM) vs indicated non-small cell lung cancer cell line H2122
[6] = HCC44, Tables 3 and 4, read-out: IC50 (uM) vs indicated non-small cell lung cancer cell line HCC44
[7] = NCI-H2122, Table 9, competitor, read-out: IC50 to H2122 cells
[8] = Tables 3 and 4, read-out: IC50 (uM) vs indicated non-small cell lung cancer cell line H2009

`O=c1ccoc2cc(OCc3cnn(-c4ccccc4)c3)ccc12` [SW 208629-1] gave an AC50 (H2009; [1]) of 49.5 µM, an AC50 (H2122) of at least 49.5 µM and an AC50 (HCC44) of 49.5 µM.

In the case of `COc1ccc(CCNC(=O)NC(=O)c2ccc(-c3ccncc3)cc2)cc1` [SW208404-1-A], the IC50 (H2009; [2]) is reported as at least 49.5 µM, the IC50 (H2122; [3]) is reported as 21.8 µM and the IC50 (HCC44; [4]) is reported as at least 49.5 µM.

`COc1ccc(C(=O)Nc2ccc(C(=O)c3ccccc3)cc2)cc1` [SW208465-1-A] showed an IC50 (H2009; [2]) of at least 49.5 µM, an IC50 (H2122; NCI-H2122, read-out: toxicity data, H2122) of at least 49.5 µM and an IC50 (HCC44; [4]) of at least 49.5 µM.

Work on `COc1ccc(CCNC(=O)NC(=O)c2ccc(C(=O)Nc3ccc(OC)cc3)cc2)cc1` [SW208411-1-A] yielded an IC50 (H2009; [2]) of at least 49.5 µM, an IC50 (H2122; [3]) of at least 49.5 µM and an IC50 (HCC44; [4]) of at least 49.5 µM.

Work on `O=c1c(-c2cc(C(F)(F)F)cc(C(F)(F)F)c2)coc2cc(OCc3cnn(-c4ccccc4)c3)ccc12` [SW208763-1] yielded an AC50 (H2009; [1]) of 3.26 µM, an AC50 (H2122) of 0.08 µM and an AC50 (HCC44) of 1.36 µM.

With `O=C(Nc1nc2c(s1)CCCC2)c1ccc(C(=O)c2ccccc2)cc1` [SW208741-1] the IC50 (H2122; [5]) was 0.22 µM and the IC50 (HCC44; [6]) was 3.64 µM.

`COc1ccc(CCNC(=O)NC(=O)c2ccc(C(=O)NC3CCCC3)cc2)cc1` [SW208454-1-A] showed an IC50 (H2009; [2]) of at least 49.5 µM, an IC50 (H2122; [3]) of 0.939 µM and an IC50 (HCC44; [4]) of at least 49.5 µM.

`COc1ccc(CCC(=O)Nc2ccc(C(=O)c3ccccc3)cc2)cc1` [SW208466-1-A] showed an IC50 (H2009; [2]) of at least 49.5 µM, an IC50 (H2122; [3]) of at least 49.5 µM and an IC50 (HCC44; [4]) of at least 49.5 µM.

For `COc1ccc(CCNC(=O)NC(=O)c2cccc(Cl)c2)cc1` [SW208400-1-A], the IC50 (H2009; [2]) was at least 49.5 µM, the IC50 (H2122; [3]) was at least 49.5 µM and the IC50 (HCC44; [4]) was at least 49.5 µM.

`COc1ccc(CCNC(=O)NC(=O)c2ccc(C(=O)Nc3ccccc3OC)cc2)cc1` [SW208409-1-A] showed an IC50 (H2009; [2]) of at least 49.5 µM, an IC50 (H2122; [3]) of 0.14 µM and an IC50 (HCC44; [4]) of at least 49.5 µM.

For `Cc1ccccc1C(=O)c1ccc(C(=O)NC(=O)NCCc2ccc(O)cc2)cc1` [SW208581-1-A], the IC50 (H2009; [2]) was 0.51 µM, the IC50 (H2122; [3]) was 1.52 µM and the IC50 (HCC44; [4]) was 0.87 µM.

For `COc1ccc(CCN(C)C(=O)NC(=O)c2ccc(C(=O)c3ccccc3)cc2)cc1` [SW208461-1-A], the IC50 (H2009; [2]) was at least 49.5 µM, the IC50 (H2122; [3]) was 8.67 µM and the IC50 (HCC44; [4]) was at least 49.5 µM.

`COc1ccc(CCNC(=O)NC(=O)c2ccc(C(=O)N(C)C)cc2)cc1` [SW208455-1-A] gave an IC50 (H2009; [2]) of 16.5 µM, an IC50 (H2122; [3]) of at least 49.5 µM and an IC50 (H2122; [7]) of 0.8 µM. It also gave an IC50 (HCC44; [4]) of at least 49.5 µM.

In the case of `O=C(Nc1nc2ccccc2s1)c1ccc(C(=O)c2ccccc2)cc1` [SW208652-1], the IC50 (H2009; [8]) is reported as 2.42 µM, the IC50 (H2122; [7]) is reported as 0.00644 µM and the IC50 (H2122; [5]) is reported as 0.009 µM. It also gave an IC50 (HCC44; [6]) of 0.025 µM.

In the case of `O=c1c(-c2ccccn2)coc2cc(OCc3cnn(-c4ccccc4)c3)ccc12` [SW208732], the AC50 (H2122) is reported as at least 49.5 µM and the AC50 (HCC44) is reported as 49.5 µM.

`COc1cc2sc(NC(=O)c3ccc(C(=O)c4ccccc4)cc3)nc2cc1Br` [SW 208237] showed an IC50 (H2009; [8]) of 6.9 µM, an IC50 (H2122; [5]) of 0.61 µM and an IC50 (HCC44; [6]) of 6.5 µM.

Compound `COc1ccc(CCNC(=O)NC(=O)c2cccc(OC)c2)cc1` [SW208403-1-A] has an IC50 (H2009; [2]) of 42.7 µM, an IC50 (H2122; [3]) of 1.09 µM and an IC50 (HCC44; [4]) of at least 49.5 µM.

`O=c1c(-c2ccc(Cl)cc2)coc2cc(OCc3cnn(-c4ccccc4)c3)ccc12` [SW208738] was tested, and the AC50 (H2009; [1]) was 49.5 µM, the AC50 (H2122) was at least 49.5 µM and the AC50 (HCC44) was 49.5 µM.

Work on `O=c1c(Oc2ccccc2F)coc2cc(OCc3cnn(-c4cccc(F)c4)c3)ccc12` [SW208467] yielded an AC50 (H2009; [1]) of 12.6 µM, an AC50 (H2122) of at least 49.5 µM and an AC50 (HCC44) of 49.5 µM.

`O=C(NCCc1ccc(O)cc1)NC(=O)c1ccc(Nc2ccccc2)cc1` [SW208562-1-A] showed an IC50 (H2009; [2]) of 0.01 µM, an IC50 (H2122; [3]) of 0.09 µM and an IC50 (H2122; [7]) of 0.0737 µM. For the same compound, the IC50 (HCC44; [4]) was 12.2 µM.

`COc1ccc(CCNC(=O)NC(=O)c2cccc(Br)c2)cc1` [SW208389-1-A] was tested, and the IC50 (H2009; [2]) was 35.6 µM, the IC50 (H2122; [3]) was at least 49.5 µM and the IC50 (HCC44; [4]) was at least 49.5 µM.

For `O=c1c(C2CC2)coc2cc(OCc3cnn(-c4ccccc4)c3)ccc12` [SW208766-1], the AC50 (H2009; [1]) was 49.5 µM, the AC50 (H2122) was 16.5 µM and the AC50 (HCC44) was 49.5 µM.

With `COc1ccc(CCNC(=O)NC(=O)c2ccc(C(O)c3ccccc3)cc2)cc1` (centres unmarked) [SW208460-1-A] the IC50 (H2009; [2]) was at least 49.5 µM, the IC50 (H2122; [3]) was 0.097 µM and the IC50 (H2122; [7]) was 0.0456 µM. The IC50 (HCC44; [4]) was 0.084 µM.

`Nc1nc2cc([N+](=O)[O-])ccc2s1` [SW053525] showed an IC50 (H2009; [8]) of 1530 µM and an IC50 (H1819) of 182 µM.

Compound `O=C(Nc1nc2ccc(O)cc2s1)c1ccc(C(=O)c2ccccc2)cc1` [SW202864-1] has an IC50 (H2122; [7]) of 0.256 µM, an IC50 (H2122; [5]) of 30.8 µM and an IC50 (HCC44; [6]) of 38.6 µM.

`O=c1c(-c2ccccc2F)coc2cc(OCc3cnn(-c4ccccc4)c3)ccc12` [SW208734] showed an AC50 (H2122) of at least 49.5 µM and an AC50 (HCC44) of 49.5 µM.

In the case of `C#CCOc1ccc2nc(NC(=O)c3ccc(C4(C(F)(F)F)N=N4)cc3)sc2c1` [SW208700-1], the IC50 (H2122; [5]) is reported as 7.92 µM and the IC50 (HCC44; [6]) is reported as 49.5 µM.
